Laboratory results as given in ChEMBL document CHEMBL3507680, “University of Dundee, Gates Library screen for HepG2 cell viability”.

Assay: Human HepG2 cell viability assay in 384 well format
Assay type: toxicity, cell-based
Parameters: dose 125 nL, time 70.5 hour; concentration not given beside the values
Settings: HepG2 cells, read-out: Inhibition

| Structure (SMILES) | cytotoxicity at 70.5 h |
| --- | --- |
| c1coc(-c2nc(CN3CCOC(Cn4cccn4)C3)cs2)c1 (centres undefined) | 29.1% |
| O=C(CN1CCOC(Cn2cccn2)C1)NC1CCN(C2CC2)CC1 (centres undefined) | -6.52% |
| COc1cc(C)nc(N2CCN(C(=O)CCc3cccs3)CC2)n1 | -6.26% |
| Cc1ccc(C(=O)NCc2ccc(N3CCNC(=O)C3)c(F)c2)cc1 | -0.234% |
| Cc1nc(C(=O)NCc2ccc(N3CCNC(=O)C3)c(F)c2)cs1 | -5.54% |
| O=C1CN(c2ccc(CNC(=O)c3cccnc3O)cc2F)CCN1 | -2.79% |
| COc1ncccc1CNC(=O)N(Cc1ccccc1F)C1CC1 | -0.0541% |
| CN(C)c1ncccc1CNC(=O)N(Cc1ccccc1F)C1CC1 | -4.47% |
| O=C(NCc1ccncc1)N(Cc1ccc(F)cc1F)C1CC1 | -5.41% |
| O=C(NCc1ccccc1CN1CCC(O)CC1)Nc1ccccc1 | -0.116% |
| CC(c1ccc(Cl)cc1)N1CCN(CCCS(C)(=O)=O)CC1 (centres undefined) | 1.48% |
| CC(c1ccc(Cl)cc1)N1CCN(CCS(N)(=O)=O)CC1 (centres undefined) | -0.779% |
| CC(c1ccc(C(F)(F)F)cc1)N1CCN(CCS(C)(=O)=O)CC1 (centres undefined) | -1.96% |
| O=C1CN(c2ccc(CNC(=O)c3ccc[nH]3)cc2F)CCN1 | 1.47% |
| CCN(CC1CCCO1)C(=O)Nc1cccc(N2CCOCC2)c1 (centres undefined) | 0.519% |
| COC(C)c1nc(CN2CCCNCC2)cs1 (centres undefined) | -3.19% |
| Cc1cccc(-c2noc(CN3CCC(c4ccn[nH]4)CC3)n2)c1 | -1.2% |
| COCCn1cc(C(=O)N2CCCC2c2cccc(C)c2)ccc1=O (centres undefined) | -4.94% |
| c1cc(C2CCN(Cc3nc(C4CC4)no3)CC2)[nH]n1 | -6.11% |
| CCN(C)S(=O)(=O)N1CCCC1CC(=O)c1cccs1 (centres undefined) | 32.3% |
| CCN(CC)S(=O)(=O)N1CCCC1CC(=O)c1cccs1 (centres undefined) | -4.6% |
| COCc1noc(C2(c3ccc(F)cc3)CC2)n1 | 12.6% |
| CC(C)(C)c1nnc(CNc2cc(F)ccc2OCC2CCCO2)o1 (centres undefined) | 32.8% |
| CCC(CNC(=O)c1ccccc1OC)N1CCc2ccccc2C1 (centres undefined) | 7.61% |

| Structure (SMILES) | cytotoxicity at 70.5 h |
| --- | --- |
| CCC(CNC(=O)c1ccccc1Br)N1CCc2ccccc2C1 (centres undefined) | -9.67% |
| Cc1csc(CNC(=O)NCC(O)c2ccc(F)cc2)n1 (centres undefined) | -12.5% |
| CCC(CNC(=O)c1ccco1)N1CCc2ccccc2C1 (centres undefined) | -12.8% |
| O=C(NCC1(N2CCOCC2)CCSC1)Nc1ccccn1 (centres undefined) | -9.14% |
| Cc1ccc(CN(C(=O)NCc2nnc3n2CCCCC3)C2CC2)o1 | -10.9% |
| O=C(NCc1nnc2n1CCC2)N(Cc1ccc(F)cc1)C1CC1 | -8.55% |
| CC(C)CCCC(C)NC(=O)c1ccc(OCC(N)=O)cc1 (centres undefined) | -6.3% |
| O=C(CN1C(=O)c2ccccc2CS1(=O)=O)c1ccc(Cl)cc1 | 7.63% |
| O=C(NCc1nnc2n1CCCCC2)N(Cc1ccccn1)C1CC1 | 0.752% |
| COC(=O)c1cccc(S(=O)(=O)N2CSCC2C(=O)N(C)C2CC2)c1 (centres undefined) | 12.1% |
| CC(=O)c1cccc(OCCCC(=O)N(C)Cc2cnc(C)s2)c1 | -6.22% |
| O=C(NCc1ccc(F)cc1)NCC1(N2CCOCC2)CCSC1 (centres undefined) | 7.3% |
| COCc1noc(C2(c3ccc(Cl)cc3)CCOCC2)n1 | -6.8% |
| C=C(C)CN1CCC(NC(=O)Nc2cc(C(N)=O)ccc2OC)CC1 | -2.27% |
| C=C(C)CN1CCC(NC(=O)NCCc2cccc(C(N)=O)c2)CC1 | -3.95% |
| CC(=O)c1cccc(OCCCC(=O)N(C)Cc2cscn2)c1 | 7.32% |
| CCNC(=O)CCC(=O)NC1(c2cccc(Br)c2)CC1 | -2.97% |
| Cc1ncccc1C(=O)NCc1ccccc1CN(C)Cc1ccco1 | -1.05% |
| Cc1ccsc1C(=O)Nc1ccc(N2CCC(O)CC2)c(C#N)c1 | -0.649% |
| Cc1ccc(C(=O)Nc2ccc(N3CCC(O)CC3)c(C#N)c2)s1 | 29.7% |
| N#Cc1cc(NC(=O)c2cscn2)ccc1N1CCC(O)CC1 | -4.48% |
| N#Cc1cc(NC(=O)c2ccccn2)ccc1N1CCC(O)CC1 | -3.91% |
| COc1ccccc1OCC(=O)NS(=O)(=O)c1ccc(Cl)cc1F | 13.3% |
| O=C(NCCc1nnc2n1CCC2)N(Cc1ccco1)C1CCCC1 | -6.25% |

| Structure (SMILES) | cytotoxicity at 70.5 h |
| --- | --- |
| CC(=O)c1cccc(OCCCC(=O)N(C)Cc2cnn(C)c2)c1 | 9.09% |
| CCOCC(=O)NC1(c2cccc(Cl)c2)CC1 | -8.22% |
| COCCCC(=O)NC1(c2cccc(Br)c2)CC1 | 8.13% |
| CCc1nc(CNc2cc(Cl)ccc2OCC2CCCO2)no1 (centres undefined) | -8.62% |
| COc1cccc(OCC(=O)NS(=O)(=O)c2cc(F)ccc2F)c1 | -5.46% |
| CC(O)(CNC(=O)NCc1cccc(-n2cncn2)c1)c1ccco1 (centres undefined) | 7.59% |
| COc1ccc(C(C)NC(=O)Nc2nnc(C)s2)cc1OC (centres undefined) | 2.44% |
| CC(NC(=O)CCc1nc(C(C)(C)C)no1)c1nnc2n1CCC2 (centres undefined) | -7.28% |
| O=C(NCCNC(=O)C1CC1)c1cnc(-c2ccccc2)nc1 | 16.6% |
| CCN(CC)CCNC(=O)c1cnc(-c2ccccc2)nc1 | -7.78% |
| OC1CCN(c2cnnc3ccccc23)CC1 | 30.5% |
| COCc1cccc(CNC(=O)CNc2ccccc2C(C)=O)c1 | 1.21% |
| COCc1ccccc1CNC(=O)CNc1ccccc1C(C)=O | 2.64% |
| CN(C(=O)C1(C#N)CCCCC1)c1nccs1 | -0.486% |
| CC(C)Oc1cccc(CNC(=O)N2CCC(N3CC=CC3)C2)c1 (centres undefined) | 26.6% |
| c1ccc(N(CCn2cncn2)CC2CC2)cc1 | -4.37% |
| NC(=O)C1CCCN1C(=O)c1cccc2c1OCO2 (centres undefined) | -1.57% |
| COCc1ccccc1CNC(=O)CNc1cccc(Cl)c1OC | -2.8% |
| CC(C)Nc1cccc(CNC(=O)N2CCC(N3CC=CC3)C2)c1 (centres undefined) | 30.6% |
| Cc1nc(CCNC(C)c2ccc3c(c2)OCCCO3)cs1 (centres undefined) | 0.884% |
| Cc1ccccc1CN1CCCN(C(=O)c2ccn(C)c(=O)c2)CC1 | -1.43% |
| COC(=O)c1ccc(CNC(C)(C)c2ccccc2OC)o1 | -6.94% |
| Cc1nn(CCC#N)c(C)c1CCC(=O)N(C)Cc1ccc(F)cc1F | -4.98% |
| CN(Cc1nc2ccsc2c(=O)[nH]1)CC1CCCCC1 | -6.1% |

| Structure (SMILES) | cytotoxicity at 70.5 h |
| --- | --- |
| COCCn1cc(NC(=O)NCC2CCN(c3ccccc3)C2)cn1 (centres undefined) | -3.34% |
| Cc1nn(CCC#N)c(C)c1CCC(=O)N(C)Cc1ccsc1 | -8.77% |
| Cc1n[nH]c(C(=O)N2CCCC(C)CC2)c1Br (centres undefined) | -5.15% |
| CCC1CN(C(=O)c2[nH]nc(C)c2Br)CCO1 (centres undefined) | -6.3% |
| Cc1ccccc1S(=O)(=O)NC(=O)C1(c2cccc(Cl)c2)CC1 | -5.62% |
| CCOc1ncccc1C(=O)N1CC=C(c2ccc(O)cc2)CC1 | -6.39% |
| CN(C)c1ccc(CCCNC(=O)NCC(O)c2ccsc2)cc1 (centres undefined) | -3.63% |
| CCc1nc(C2CCCN2c2ncc(Br)cn2)no1 (centres undefined) | -6.32% |
| COCCCn1ccc(NC(=O)NCCc2cccnc2)n1 | -6.28% |
| CCn1nc(C)c(S(=O)(=O)Nc2cccc(C(=O)O)c2C)c1C | -2.69% |
| Cc1noc(-c2ccnc(N3CCC(CN4CCOCC4)CC3)c2)n1 | 11% |
| CS(=O)(=O)Cc1ccc(NC(=O)Cc2cccnc2)cc1F | -4.71% |
| CN(C)C(=O)c1ccc(OC2CCCC2)cc1 | -7% |
| Cc1cccc(C(C)NCC2CCS(=O)(=O)CC2)c1 (centres undefined) | -3.65% |
| CC(C)COC(C)C(=O)N1CCCCCC1 (centres undefined) | -8.79% |
| CC(C)COC(C)C(=O)N1CCCCC1 (centres undefined) | -3.46% |
| c1cnn(CC2CN(CCCOc3ccc4c(c3)OCO4)CCO2)c1 (centres undefined) | -8.43% |
| COCCCn1ccc(NC(=O)NCCCNc2ccccc2)n1 | -3.49% |
| CC(=O)Nc1cccc(C(C)NCC2CCS(=O)(=O)CC2)c1 (centres undefined) | -3.86% |
| CC(NCC1CCS(=O)(=O)CC1)c1cccc(OC(F)F)c1 (centres undefined) | -6.96% |
| CCN(CC)CCNC(=O)c1ccc(Cl)c(NS(C)(=O)=O)c1 | 4.61% |
| CCOc1ncccc1CNS(=O)(=O)N1CCOCC1 | 15.2% |
| O=S(=O)(NCC1CCOC1)N1CCc2ccccc2C1 (centres undefined) | -0.92% |
| O=C(NCCNc1cnccn1)c1scnc1Cl | -8.29% |

| Structure (SMILES) | cytotoxicity at 70.5 h |
| --- | --- |
| CS(=O)(=O)c1ccc(NC(=O)CSC(F)(F)F)cn1 | 20.8% |
| Cc1noc(C)c1CNC(=O)C(C)Oc1ccccc1F (centres undefined) | -4.89% |
| CNC(=O)NC(=O)CN1CCCN(CC(F)(F)F)CC1 | -7.82% |
| Cc1noc(OCc2ccc(C#N)cc2)n1 | -0.0296% |
| CC1(C)CN(C(=O)Nc2ccc(Cn3cccn3)cc2)CCO1 | -3.49% |
| Cc1noc(OCCOc2ccc(C#N)cc2)n1 | 5.31% |
| O=C(C[S+]([O-])Cc1cccc(C(F)(F)F)c1)NC1CCCC1 (centres undefined) | -8.39% |
| O=C(C[S+]([O-])Cc1ccc(F)cc1Cl)NC1CCCC1 (centres undefined) | -6.82% |
| COc1ccc(-c2ccc(C(=O)O)c(F)c2)c(F)c1 | 27.5% |
| NS(=O)(=O)NCC1(c2ccccc2Br)CC1 | 0.0399% |
| CCN(C)S(=O)(=O)NCC1(c2ccccc2Br)CC1 | 4.86% |
| CCc1cc(N2CCC(NC(=O)CCC3CCCO3)CC2)ncn1 (centres undefined) | 25.3% |
| Cc1cc(N2CCC(NC(=O)CCc3ccco3)CC2)nc(C)n1 | 11.4% |
| Cn1c(=O)oc2cc(Nc3nccnc3C#N)ccc21 | -2.2% |
| CN(C)CCNC(=O)Nc1cccc(C[S+]([O-])Cc2ccccc2)c1 (centres undefined) | -2.04% |
| CC1(C)CN(CC(F)(F)F)CCN1CC(=O)NC1CC1 | -6.02% |
| CC(NC(=O)c1cccs1)C(=O)NS(=O)(=O)c1ccc(C#N)cc1 (centres undefined) | -5.58% |
| COc1c(CNCc2cccnc2OC2CCCC2)c(C)nn1C | -1.47% |
| COc1ccc(Cl)cc1-c1cc(NC(=O)CNC(=O)C2CC2)[nH]n1 | -7.16% |
| CCN(C(=O)CN(Cc1cccc(O)c1)C1CCC(O)CC1)C1CC1 (centres undefined) | -2.83% |
| N#Cc1ccsc1C(=O)N1CCCCC1Cn1cccn1 (centres undefined) | 9.01% |
| CN1CCN(CCCN(C)S(=O)(=O)C2CCCCC2)CC1 | -1.58% |
| CCc1ccc(C(COC)NC(=O)c2ccc(O)nc2)o1 (centres undefined) | -6.34% |
